Entries after “also recorded” stand apart in the source; their conditions may differ.
Key:
[1] = test system: Lactobacillus reuteri DSM 17938; experiment: Growth of Lactobacillus reuteri in simulated intestinal substrate (SIS); assay type: cell-based; conditions: FIG. 1; GOS or glucose plus electron acceptor, 15 mM of each; 16 h at 37° C., anaerobic
Protocol: The growth of L. reuteri DSM 17938 on different combinations of sugar and electron acceptors was evaluated in “Simulated intestinal substrate” (SIS). [table] Lactobacillus reuteri cells of strain DSM 17938 were first grown over night in MRS broth (Oxoid) at 37° C. After washing in phosphate-buffered saline (PBS) the bacteria were diluted 10 × in PBS. 10 μl of bacterial suspension was thereafter inoculated to 10 ml SIS (with addition of sugar and electron acceptor), and the bacteria were cultivated for 16 h at 37° C. during anaerobic conditions and no shaking. The growth of Lactobacillus reuteri DSM 17938 in SIS with lactose and citrate as the sugar-electron acceptor pair is evaluated in the same way as described above for GOS and citrate as the electron acceptor. The above described substrate (SIS) is used.

[2] = test system: Lactobacillus reuteri DSM 17938; experiment: Evaluation of activation time by turbidity (BioScreen) in simulated intestinal medium STMmod 3; assay type: cell-based; conditions: STMmod 3, 37° C., OD 600 nm; with citrate compared to without citrate; FIG. 3
Protocol: The activation time in simulated intestinal medium (STMmod 3, see Table 4) of the two variants of lyophilized DSM 17938 (C and N) were analyzed using a computer-controlled incubator/reader/shaker (BioScreen C MBR) that measure the change in turbidity over time. The medium STMmod 3 was used to mimic the conditions in the intestine. To each well 200 μl of STMmod 3 was added. Thereafter different volumes (100, 60, 40, 30, 25 μl) of bacterial suspension (vials with lyophilized bacteria suspended in 1 ml dH2O) were added. Volumes were adjusted to 300 μl with dH2O. The analysis of each inoculation volume was done in triplicates. The BioScreen analysis was run at 37° C. for 24 hours with a 15 min interval between measurements (OD 600 nm), with the addition of a 10 s shaking step before each measuring point. [table]

In the case of `O=C(O)CC(O)(CC(=O)O)C(=O)O` [Citrate], the “growth of Lactobacillus reuteri DSM 17938 in simulated intestinal substrate” value [1] is reported as “highest effect” and the “time to reach a 3% increase in OD (activation time)” value [2] is reported as “shorter time; also recorded: shorten the activation time”.

— patent US12171793B2, “Method of activating lactic acid bacteria” (INFANT BACTERIAL THERAPEUTICS AB, priority 2015, dated 2024)
